Experimental findings from patent US11247993B2, “Pyridone derivative, composition and use as antiviral drug thereof” (priority 2018, dated 2022) are described below.

SMILES strings stand for the structures.

System in the first data set: not listed separately
Description: in vitro. It is filed as cell-based. The conditions noted are these: dog. On the procedure: Method for cytotoxicity study: The cytotoxicity assay and antiviral activity assay of the compounds were performed in parallel, except for the absence of virus, other experimental conditions were consistent with the antiviral activity assay. After 5 days of culture, the cell viability was measured using the cell viability detection kit CCK8. Raw data were used for calculating compound cytotoxicity (CC50) (see Table 1 for results).
As a reminder, the CC50 is the concentration that lowers cell viability or growth by half. A lower CC50 goes with harm at low concentration. Turning to `O=C1c2c(O)c(=O)ccn2N([C@@H]2c3ccccc3SCc3cccc(F)c32)[C@@H]2COC3(CC3)CN12` [II-18], the CC50 at 5 days was above 1000 nM.
Compound `O=C1c2c(O)c(=O)ccn2N([C@@H]2c3ccccc3SCc3c2ccc(F)c3F)[C@@H]2CC=CCN12` [II-66] had a CC50 at 5 days above 1000 nM.
`COCC1CN2C(=O)c3c(O)c(=O)ccn3N([C@@H]3c4ccccc4SCc4c3ccc(F)c4F)[C@@H]2CO1` (stereo partly shown) [II-29] displayed a CC50 at 5 days above 1000 nM.
Same read-out and setting: the same measure for `O=C1c2c(O)c(=O)ccn2N([C@@H]2c3ccccc3SCc3c2ccc(F)c3F)CN1C12CC(C1)C2` [Compound I-77]: above 1000 nM; for `O=C1c2c(O)c(=O)ccn2N([C@@H]2c3ccccc3SCc3c2ccc(F)c3F)[C@@H]2CC(OC3CC3)CCN12` (stereo partly shown) [II-34]: above 1000 nM; for `O=C1c2c(O)c(=O)ccn2N([C@@H]2c3ccccc3SCc3c2ccc(F)c3F)[C@@H]2COCC3(CC3)N12` [II-5]: above 1000 nM.
With `O=C1c2c(O)c(=O)ccn2N([C@@H]2c3ccccc3SCc3c2ccc(F)c3F)CN1CCOC1CC1` [Compound I-7], the CC50 at 5 days was above 1000 nM.
Take `O=C1c2c(O)c(=O)ccn2N([C@H]2c3ccccc3CSc3ccccc32)[C@@H]2COC3(CC3)CN12` [II-2]: the CC50 at 5 days was above 1000 nM.
The same measure, in the same setting: the same measure for `O=C(O)[C@H]1C2CCC(CC2)[C@@H]1Nc1nc(-c2c[nH]c3ncc(F)cc23)ncc1F` [VX-787, reference compound]: above 100 nM.
`O=C1c2c(O)c(=O)ccn2N([C@H]2c3ccccc3CSc3ccccc32)CN1C1CC2(COC2)C1` [Compound I-10]: the CC50 at 5 days is above 1000 nM.
The compound `O=C1c2c(O)c(=O)ccn2N([C@H]2c3ccc(F)cc3CSc3ccccc32)CN1C12CC(C1)C2` [Compound I-83] registered a CC50 at 5 days above 1000 nM.
Still for that read-out and setting: the same measure for `O=C1c2c(O)c(=O)ccn2N([C@@H]2c3ccccc3SCc3cccc(F)c32)CN1C12CC(C1)C2` [Compound I-85]: above 1000 nM.
On the same count and under the same terms, the same measure for `O=C1c2c(O)c(=O)ccn2N([C@@H]2c3ccccc3SCc3c(F)cccc32)CN1C12CC(C1)C2` [Compound I-81]: above 1000 nM; for `O=C1c2c(O)c(=O)ccn2N([C@H]2c3ccc(F)cc3CSc3ccccc32)[C@@H]2COC3(CC3)CN12` [II-14]: above 1000 nM.
Compound `O=C1c2c(O)c(=O)ccn2N([C@@H]2c3ccccc3SCc3cccc(Cl)c32)[C@@H]2COC3(CC3)CN12` [II-22] registered a CC50 at 5 days above 1000 nM.
The same measure, in the same setting: the same measure for `O=C1c2c(O)c(=O)ccn2N([C@H]2c3ccc(F)cc3CSc3ccccc32)[C@@H]2COCC3(CC3)N12` [II-13]: above 1000 nM; for `O=C1c2c(O)c(=O)ccn2N([C@@H]2c3ccccc3SCc3c2ccc(F)c3F)[C@@H]2COC3(COC3)CN12` [II-7]: above 1000 nM.
In turn, `O=C1c2c(O)c(=O)ccn2N([C@H]2c3ccccc3CSc3ccccc32)CN1C12CC(C1)C2` [Compound I-69] came in with a CC50 at 5 days above 1000 nM.
For the compound `O=C1c2c(O)c(=O)ccn2N([C@@H]2c3ccccc3SCc3cccc(F)c32)CN1C1CC2(CCC2)C1` [Compound I-21], the CC50 at 5 days was above 1000 nM.

System in another data set: not listed separately
Description: in vivo. The arrangement: species or system SD rats. The conditions noted are these: SD, rat, iv, 0.25 mg/kg. As to the method:
Intravenous injection: about 2 mg of Compound 11-5, Compound 11-6 and Compound 1-77 were accurately weighed out and added with appropriate amount of DMA, followed by vortex to a clean solution. An appropriate volume of 30% Solutol HS-15 aqueous solution and saline were added and vortexed, so that DMA: 30% Solutol HS-15: saline was 20:20:60 (v/v/v). The solution was filtered to give a 0.05 mg·mL^−1 pharmaceutical preparation. SD rats were given a single injection of 0.25 mg·kg^−1 of Compounds 11-5, 11-6 and 1-77 intravenously. 0.20 mL of blood was collected from the jugular vein before administration and 0.083 h, 0.25 h, 0.5 h, 1 h, 2 h, 4 h, 8 h, 12 h and 24 h after administration, and placed in an EDTA-K2 anticoagulation tube. 150 μL of whole blood was accurately pipetted immediately, and added into a test tube to which 450 μL of acetonitrile has been added to precipitate proteins, and the tube was vortexed, and placed on wet ice. It was stored in a −90˜−60° C. refrigerator for biological sample analysis. The concentration of the corresponding compound in the plasma of S-D rats was determined by LC-MS/MS analysis. The corresponding pharmacokinetic parameters were calculated using a non-compartmental model in Pharsight Phoenix 7.0.
A word on the AUC(0-t): it is exposure summed from dosing to a finite time, without extrapolation to infinity. High values mean more exposure, low ones less exposure. For orientation: Vd means a proportionality between amount in the body and measured concentration, not a real space. A high value points to wide distribution into tissue. As a reminder, the clearance is the volume of plasma or blood freed of the substance per unit of time. Read a high clearance as efficient removal. What is called half-life is the time in which the quantity being followed falls by half. The low end stands for rapid decline, the high end for slow decline. Take `O=C1c2c(O)c(=O)ccn2N([C@@H]2c3ccccc3SCc3c2ccc(F)c3F)CN1C12CC(C1)C2` [Compound I-77]: the AUC(0-t) came out at 307 ng·h/mL, the Vd worked out at 2.77 L/kg, the clearance stood at 13 mL/min/kg and the half-life is 2.96 h.
The matching figures for `O=C1c2c(O)c(=O)ccn2N([C@@H]2c3ccccc3SCc3c2ccc(F)c3F)[C@@H]2COCC3(CC3)N12` [II-5]: 187 ng·h/mL, 3.69 L/kg, 20.9 mL/min/kg and 2.49 h.

The subject of the next data set is influenza virus A/PR/8/34 (H1N1). Description: organism not typed. It is filed as cell-based. The conditions noted are these: 120 h; MDCK cells, A/PR/8/34 (H1N1), 5 days, CCK8; read-out: EC50.
For orientation: EC50 means the concentration at which the effect is half-maximal. Consider `O=C1c2c(O)c(=O)ccn2N([C@@H]2c3ccccc3SCc3cccc(F)c32)[C@@H]2COC3(CC3)CN12` [II-18], for which the EC50 is 0.28 nM.
In the case of `O=C1c2c(O)c(=O)ccn2N([C@@H]2c3ccccc3SCc3c2ccc(F)c3F)[C@@H]2CC=CCN12` [II-66], the EC50 came to 0.18 nM.
For the compound `COCC1CN2C(=O)c3c(O)c(=O)ccn3N([C@@H]3c4ccccc4SCc4c3ccc(F)c4F)[C@@H]2CO1` (stereo partly shown) [II-29], the EC50 amounted to 0.57 nM.
For `O=C1c2c(O)c(=O)ccn2N([C@@H]2c3ccccc3SCc3c2ccc(F)c3F)CN1C12CC(C1)C2` [Compound I-77], the EC50 amounted to 0.16 nM.
Same read-out and setting: the same measure for `O=C1c2c(O)c(=O)ccn2N([C@@H]2c3ccccc3SCc3c2ccc(F)c3F)[C@@H]2CC(OC3CC3)CCN12` (stereo partly shown) [II-34]: 0.39 nM.
Regarding `O=C1c2c(O)c(=O)ccn2N([C@@H]2c3ccccc3SCc3c2ccc(F)c3F)CN1CCOC1CC1` [Compound I-7], the EC50 worked out at 0.83 nM.
Still for that read-out and setting: the same measure for `O=C1c2c(O)c(=O)ccn2N([C@H]2c3ccccc3CSc3ccccc32)[C@@H]2COC3(CC3)CN12` [II-2]: 0.51 nM; for `O=C(O)[C@H]1C2CCC(CC2)[C@@H]1Nc1nc(-c2c[nH]c3ncc(F)cc23)ncc1F` [VX-787, reference compound]: 1.4 nM; for `O=C1c2c(O)c(=O)ccn2N([C@H]2c3ccccc3CSc3ccccc32)CN1C1CC2(COC2)C1` [Compound I-10]: 0.7 nM.
On the same count and under the same terms, under `O=C1c2c(O)c(=O)ccn2N([C@H]2c3ccc(F)cc3CSc3ccccc32)CN1C12CC(C1)C2` [Compound I-83] stands 0.21 nM; under `O=C1c2c(O)c(=O)ccn2N([C@@H]2c3ccccc3SCc3cccc(F)c32)CN1C12CC(C1)C2` [Compound I-85], 0.18 nM.
In the case of `O=C1c2c(O)c(=O)ccn2N([C@@H]2c3ccccc3SCc3c(F)cccc32)CN1C12CC(C1)C2` [Compound I-81], the EC50 was 0.19 nM.
Consider `O=C1c2c(O)c(=O)ccn2N([C@H]2c3ccc(F)cc3CSc3ccccc32)[C@@H]2COC3(CC3)CN12` [II-14], for which the EC50 was 0.31 nM.
For `O=C1c2c(O)c(=O)ccn2N([C@@H]2c3ccccc3SCc3cccc(Cl)c32)[C@@H]2COC3(CC3)CN12` [II-22], the EC50 was determined as 0.36 nM.
Same read-out and setting: under `O=C1c2c(O)c(=O)ccn2N([C@@H]2c3ccccc3SCc3c2ccc(F)c3F)[C@@H]2COC3(COC3)CN12` [II-7] stands 0.93 nM; under `O=C1c2c(O)c(=O)ccn2N([C@H]2c3ccccc3CSc3ccccc32)CN1C12CC(C1)C2` [Compound I-69], 0.35 nM; under `O=C1c2c(O)c(=O)ccn2N([C@@H]2c3ccccc3SCc3cccc(F)c32)CN1C1CC2(CCC2)C1` [Compound I-21], 0.6 nM.

Staying with this data set, now noted: MDCK, 120 h.
On to `O=C1c2c(O)c(=O)ccn2N([C@@H]2c3ccccc3SCc3c2ccc(F)c3F)[C@@H]2COCC3(CC3)N12` [II-5], for which the EC50 came out at 0.22 nM.
Still for that read-out and setting: under `O=C1c2c(O)c(=O)ccn2N([C@H]2c3ccc(F)cc3CSc3ccccc32)[C@@H]2COCC3(CC3)N12` [II-13] stands 0.38 nM.
